# Experimental data published in paper PMC8699473, “An Easily Expandable Multi-Drug LC-MS Assay for the Simultaneous Quantification of 57 Oral Antitumor Drugs in Human Plasma” (Cancers, 2021).
# Experiment: Long-term stability in spiked pooled human plasma
Structure (SMILES),"Long-term stability, 1 month, -20°C Accuracy [%] (validation standard 2xLLOV)","Long-term stability, 1 month, -80°C Accuracy [%] (validation standard 2xLLOV)","Long-term stability, 2 month, -20°C Accuracy [%] (validation standard 2xLLOV)","Long-term stability, 2 month, -80°C Accuracy [%] (validation standard 2xLLOV)","Long-term stability, 3 month, -20°C Accuracy [%] (validation standard 2xLLOV)","Long-term stability, 3 month, -80°C Accuracy [%] (validation standard 2xLLOV)","Long-term stability, 6 weeks, 4°C, without daylight Accuracy [%] (validation standard 2xLLOV)","Long-term stability, 1 month, -20°C Accuracy [%] (validation standard LLOV)","Long-term stability, 1 month, -80°C Accuracy [%] (validation standard LLOV)","Long-term stability, 2 month, -20°C Accuracy [%] (validation standard LLOV)","Long-term stability, 2 month, -80°C Accuracy [%] (validation standard LLOV)","Long-term stability, 3 month, -20°C Accuracy [%] (validation standard LLOV)","Long-term stability, 3 month, -80°C Accuracy [%] (validation standard LLOV)","Long-term stability, 6 weeks, 4°C, without daylight Accuracy [%] (validation standard LLOV)","Long-term stability, 1 month, -20°C Accuracy [%] (validation standard MOV)","Long-term stability, 1 month, -80°C Accuracy [%] (validation standard MOV)","Long-term stability, 2 month, -20°C Accuracy [%] (validation standard MOV)","Long-term stability, 2 month, -80°C Accuracy [%] (validation standard MOV)","Long-term stability, 3 month, -20°C Accuracy [%] (validation standard MOV)","Long-term stability, 3 month, -80°C Accuracy [%] (validation standard MOV)",further results
Cc1cc(Nc2ncc(Cl)c(Nc3ccccc3S(=O)(=O)C(C)C)n2)c(OC(C)C)cc1C1CCNCC1 [Ceritinib],94.3%,89.5%,94.4%,96.4%,91.8%,93.4%,77.8%,101.5%,96.1%,99.7%,103.7%,96.9%,100.3%,78.9%,93.3%,93.7%,94.6%,95.5%,94.1%,95.7%,"Long-term stability, 6 weeks, 4°C, without daylight Accuracy [%] (validation standard MOV): 104.9%; Long-term stability, 1 month, -20°C Accuracy [%] (validation standard ULOV): 97.3%; Long-term stability, 1 month, -80°C Accuracy [%] (validation standard ULOV): 94.0%; Long-term stability, 2 month, -20°C Accuracy [%] (validation standard ULOV): 99.1%; Long-term stability, 2 month, -80°C Accuracy [%] (validation standard ULOV): 100.5%; Long-term stability, 3 month, -20°C Accuracy [%] (validation standard ULOV): 101.8%; Long-term stability, 3 month, -80°C Accuracy [%] (validation standard ULOV): 100.0%; Long-term stability, 6 weeks, 4°C, without daylight Accuracy [%] (validation standard ULOV): 97.9%"
O=C(c1ccc(F)c(F)c1Nc1ccc(I)cc1F)N1CC(O)([C@@H]2CCCCN2)C1 [Cobimetinib],100.8%,93.9%,98.0%,103.4%,99.0%,97.6%,94.8%,101.1%,99.0%,99.0%,97.9%,101.3%,100.3%,94.5%,98.9%,96.8%,100.8%,103.3%,99.2%,98.4%,"Long-term stability, 6 weeks, 4°C, without daylight Accuracy [%] (validation standard MOV): 108.3%; Long-term stability, 1 month, -20°C Accuracy [%] (validation standard ULOV): 100.6%; Long-term stability, 1 month, -80°C Accuracy [%] (validation standard ULOV): 97.3%; Long-term stability, 2 month, -20°C Accuracy [%] (validation standard ULOV): 104.5%; Long-term stability, 2 month, -80°C Accuracy [%] (validation standard ULOV): 103.6%; Long-term stability, 3 month, -20°C Accuracy [%] (validation standard ULOV): 100.6%; Long-term stability, 3 month, -80°C Accuracy [%] (validation standard ULOV): 98.3%; Long-term stability, 6 weeks, 4°C, without daylight Accuracy [%] (validation standard ULOV): 102.4%"
C[C@@H](Oc1cc(-c2cnn(C3CCNCC3)c2)cnc1N)c1c(Cl)ccc(F)c1Cl [Crizotinib],87.5%,85.4%,90.8%,93.8%,87.5%,90.2%,68.4%,77.1%,75.4%,74.2%,78.9%,72.6%,73.9%,58.2%,90.2%,89.3%,96.3%,96.2%,94.9%,95.1%,"Long-term stability, 6 weeks, 4°C, without daylight Accuracy [%] (validation standard MOV): 93.4%; Long-term stability, 1 month, -20°C Accuracy [%] (validation standard ULOV): 84.4%; Long-term stability, 1 month, -80°C Accuracy [%] (validation standard ULOV): 80.1%; Long-term stability, 2 month, -20°C Accuracy [%] (validation standard ULOV): 88.8%; Long-term stability, 2 month, -80°C Accuracy [%] (validation standard ULOV): 89.2%; Long-term stability, 3 month, -20°C Accuracy [%] (validation standard ULOV): 88.4%; Long-term stability, 3 month, -80°C Accuracy [%] (validation standard ULOV): 89.7%; Long-term stability, 6 weeks, 4°C, without daylight Accuracy [%] (validation standard ULOV): 83.8%"
CC(C)(C)c1nc(-c2cccc(NS(=O)(=O)c3c(F)cccc3F)c2F)c(-c2ccnc(N)n2)s1 [Dabrafenib],101.2%,93.1%,98.6%,101.3%,96.6%,101.7%,107.2%,101.0%,96.1%,99.0%,97.9%,97.1%,96.6%,102.4%,96.1%,92.3%,97.8%,98.9%,100.3%,98.0%,"Long-term stability, 6 weeks, 4°C, without daylight Accuracy [%] (validation standard MOV): 107.2%; Long-term stability, 1 month, -20°C Accuracy [%] (validation standard ULOV): 97.0%; Long-term stability, 1 month, -80°C Accuracy [%] (validation standard ULOV): 92.2%; Long-term stability, 2 month, -20°C Accuracy [%] (validation standard ULOV): 97.4%; Long-term stability, 2 month, -80°C Accuracy [%] (validation standard ULOV): 98.0%; Long-term stability, 3 month, -20°C Accuracy [%] (validation standard ULOV): 96.3%; Long-term stability, 3 month, -80°C Accuracy [%] (validation standard ULOV): 98.6%; Long-term stability, 6 weeks, 4°C, without daylight Accuracy [%] (validation standard ULOV): 100.6%"
